The results in this text go back to ChEMBL document CHEMBL3352190, “New benzothieno[3,2-d]-1,2,3-triazines with antiproliferative activity: synthesis, spectroscopic studies, and biological activity” (2014).

Active and inactive are the calls of the source. The calls are words filed in the database; no cut-off is given here. A value given as a limit tells only on which side of the number the result lay.

Assay [1] has as its system Calf thymus DNA. The experiment in a line: Binding affinity to calf thymus DNA assessed as hypochromic effect by UV-vis spectroscopy. It counts as nucleic-acid assay. Further details: concentration or dose not given beside the values. The conditions noted are these: Bos taurus.
The subject of assay [2] is HeLa. Nature of the assay: Cytotoxicity against human HeLa cells assessed as reduction in cell viability by MTT assay. It counts as functional, cell-based. The conditions noted are these: TDE = time-dependent effect.
Assay [3] relates to Calf thymus DNA. The experiment in a line: Binding affinity to calf thymus DNA assessed as change in CD spectrum of DNA by CD titration method. The conditions noted are these: Bos taurus. It counts as nucleic-acid assay.
The test system of assay [4] is HeLa. Nature of the assay: Cytotoxicity against human HeLa cells assessed as reduction in cell viability after 24 to 48 hrs by MTT assay. It counts as functional.
In assay [5] the test system is Calf thymus DNA. Nature of the assay: Binding affinity to calf thymus DNA assessed by UV-vis spectroscopy. Type of assay: nucleic-acid assay. The settings on record: Bos taurus.
Assay [6] has as its system HeLa. Nature of the assay: Cytotoxicity against human HeLa cells assessed as reduction in cell viability after 24 hrs by MTT assay. It counts as functional.
Assay [7] concerns HeLa. Nature of the assay: Cytotoxicity against human HeLa cells assessed as reduction in cell viability after 48 hrs by MTT assay. It counts as functional.
Assay [8] concerns Calf thymus DNA. Nature of the assay: Binding affinity to calf thymus DNA assessed as DNA intercalation by viscosity study. It counts as nucleic-acid assay. The conditions noted are these: Bos taurus.
Assay [9] has as its system HeLa. The experiment in a line: Cell cycle arrest in human HeLa cells assessed as accumulation of G0/G1 phase after 12 to 24 hrs by flow cytometry. Type of assay: functional, cell-based.
Assay [10] deals with HeLa. Nature of the assay: Cell cycle arrest in human HeLa cells assessed as supression of G2/M phase after 12 to 24 hrs by flow cytometry. Type of assay: functional, cell-based.
The subject of assay [11] is HeLa. The experiment in a line: Cell cycle arrest in human HeLa cells at 8.8 uM after 12 hrs by flow cytometry. Type of assay: functional, cell-based.
In assay [12] the test system is HeLa. Nature of the assay: Cell cycle arrest in human HeLa cells assessed as accumulation of cells at sub-G1 phase at 8.8 uM after 24 hrs by flow cytometry. Type of assay: functional, cell-based.
Assay [13] deals with HeLa. Nature of the assay: Cell cycle arrest in human HeLa cells at 4.4 uM after 24 hrs by flow cytometry. Type of assay: functional, cell-based.
Assay [14] relates to HeLa. Nature of the assay: Cytotoxicity against human HeLa cells assessed as reduction in plasma membrane integrity at 1 to 50 uM by LDH release assay. It counts as functional, cell-based.

For the molecule `COc1cc(-n2nnc3c(sc4ccccc43)c2=O)cc(OC)c1OC`, the Activity was 29% in the assay on Calf thymus DNA [1], “tde” in the assay on HeLa [2] and “Dose-dependent effect” with HeLa [4]. In addition, the outcome with Calf thymus DNA [3] was inactive. Besides, the Kb in the assay on Calf thymus DNA [5] was 9.84 ×10⁵ /M. The GI50 with HeLa [6] worked out at 20.7 µM; in the assay with HeLa [7], 9.44 µM. In the assay on Calf thymus DNA [8], the outcome was Active.
For the molecule `O=c1c2sc3ccccc3c2nnn1-c1ccccc1`, the Activity was 85% with Calf thymus DNA [1], “tde” in the assay on HeLa [2] and “Dose-dependent effect” in the assay on HeLa [4]. The outcome with Calf thymus DNA [3] was inactive. In the assay with Calf thymus DNA [5], this molecule yielded a Kb of 6.67 ×10⁵ /M. For the same molecule, the GI50 is 18.6 µM in the assay with HeLa [6] and 9.79 µM with HeLa [7]. For the same molecule, in the assay with Calf thymus DNA [8], the result was Active.
Turning to `CCOC(=O)c1sc2ccccc2c1/N=N/Nc1ccccc1`, the Activity is 12% in the assay on Calf thymus DNA [1], “tde” in the assay on HeLa [2] and “Dose-dependent effect” with HeLa [4]. Also, the outcome with Calf thymus DNA [3] and with Calf thymus DNA [8] was Active. The same molecule returned a Kb in the assay on Calf thymus DNA [5] of 9.87 ×10⁵ /M. In addition, the GI50 in the assay with HeLa [6] came to 49.3 µM; in the assay with HeLa [7], 26.1 µM.
For the molecule `CCOC(=O)c1sc2ccccc2c1/N=N/Nc1ccc(OC)cc1`, the Activity entry is “tde” with HeLa [2] and “Dose-dependent effect” with HeLa [4]. Also, the 50% growth inhibitory concentration (GI50) was 49.1 µM in the assay with HeLa [6] and 17.4 µM in the assay with HeLa [7].
Regarding `CCOC(=O)c1sc2ccccc2c1/N=N/Nc1ccc(F)c(Cl)c1`, the results for the Activity entry in the assay on HeLa [2] and with HeLa [4] were “tde” and “Dose-dependent effect”, respectively. Moreover, the figures for the GI50 in the assay with HeLa [6] and with HeLa [7] were 31.4 µM and 12.9 µM, respectively. Besides, the result with Calf thymus DNA [8] was inactive.
With `Cn1nnc2c(C(N)=O)ncn2c1=O` [TEMOZOLOMIDE], the GI50 in the assay with HeLa [4] was over 50 µM.
On to `CCOC(=O)c1sc2ccccc2c1/N=N/Nc1cc(OC)c(OC)c(OC)c1`, for which the Activity was 11% in the assay with Calf thymus DNA [1], “tde” in the assay on HeLa [2] and “Dose-dependent effect” in the assay with HeLa [4]. Besides, the outcome with Calf thymus DNA [3] was inactive. In the assay on Calf thymus DNA [5], the Kb amounted to 4.14 ×10⁶ /M. The GI50 with HeLa [6] was found to be 22.8 µM; with HeLa [7] it was 14.4 µM. In the assay with Calf thymus DNA [8], the outcome was Active.
As to `COc1ccc(-n2nnc3c(sc4ccccc43)c2=O)cc1`, the Activity entry in the assay on HeLa [9] is “Dose-dependent effect”; with HeLa [10], “Dose-dependent effect”; in the assay with Calf thymus DNA [1] it was 28%; in the assay on HeLa [2] it was “tde”; in the assay with HeLa [4] it was “Dose-dependent effect”. In addition, the outcome in the assay on HeLa [11], in the assay with Calf thymus DNA [3], in the assay with HeLa [12], in the assay on HeLa [13] and with Calf thymus DNA [8] was Active. Moreover, the Kb in the assay on Calf thymus DNA [5] was determined as 9.72 ×10⁴ /M. In addition, the GI50 amounted to 4.37 µM in the assay on HeLa [6] and 1.24 µM with HeLa [7]. Besides, the outcome with HeLa [14] was inactive.
Take `CN(C)/N=N/c1[nH]cnc1C(N)=O` [DACARBAZINE]: in the assay with HeLa [4], the GI50 is over 50 µM.
As to `CCOC(=O)c1sc2ccccc2c1/N=N/Nc1ccc(C)cc1`, the results for the Activity entry in the assay with HeLa [2] and with HeLa [4] were “tde” and “Dose-dependent effect”, respectively. The GI50 in the assay on HeLa [6] turned out to be 42.1 µM; in the assay on HeLa [7], 18.3 µM. In addition, the outcome in the assay with Calf thymus DNA [8] was inactive.
With `Cc1ccc(-n2nnc3c(sc4ccccc43)c2=O)cc1`, the Activity was 25% in the assay on Calf thymus DNA [1], “tde” in the assay on HeLa [2] and “Dose-dependent effect” in the assay with HeLa [4]. Further, the outcome in the assay with Calf thymus DNA [3] and in the assay with Calf thymus DNA [8] was Active. The molecule also registered a Kb with Calf thymus DNA [5] of 1.23 ×10⁵ /M. Besides, the GI50 with HeLa [6] is 5.32 µM; in the assay on HeLa [7], 1.88 µM. The result in the assay on HeLa [14] was inactive.
In the case of `O=c1c2sc3ccccc3c2nnn1-c1ccc(F)c(Cl)c1`, the Activity entry in the assay on HeLa [2] was “tde”; in the assay with HeLa [4], “Dose-dependent effect”. The GI50 in the assay on HeLa [6] is 6.35 µM; with HeLa [7] it was 2.45 µM. Moreover, the outcome in the assay with HeLa [14] and with Calf thymus DNA [8] was inactive.
